Source: US4971964A, “Pyridine derivatives” (priority 1988, dated 1990)

Key:
dd male mice = assay: Acute Toxicity Test (minimum lethal dose, MLD); format: in vivo
Description: A test compound was given to dd male mice weighing 20±1 g (3 mice per group) per os. (p.o.; 300 mg/kg) or intraperitoneally (i.p.; 100 mg/kg). The mortality after 7 days from the administration was considered to determine the minimum lethal dose (MLD).

[1] = molecular target: T1, thromboxane synthase (TXA2 synthase), bovine platelet microsome (Bos taurus, UniProt Q2KIG5); assay: Test on Inhibition of TXA2 Biosynthesis (bovine platelet microsome, TXB2 by radioimmunoassay); format: biochemical; details: for IC50: bovine platelet microsome, pH 7.4, prostaglandin H2 substrate
T1 construct: bovine platelet microsome; from tissue; host or cells: bovine platelets (microsome)
T1 sequence (Q2KIG5 1-533): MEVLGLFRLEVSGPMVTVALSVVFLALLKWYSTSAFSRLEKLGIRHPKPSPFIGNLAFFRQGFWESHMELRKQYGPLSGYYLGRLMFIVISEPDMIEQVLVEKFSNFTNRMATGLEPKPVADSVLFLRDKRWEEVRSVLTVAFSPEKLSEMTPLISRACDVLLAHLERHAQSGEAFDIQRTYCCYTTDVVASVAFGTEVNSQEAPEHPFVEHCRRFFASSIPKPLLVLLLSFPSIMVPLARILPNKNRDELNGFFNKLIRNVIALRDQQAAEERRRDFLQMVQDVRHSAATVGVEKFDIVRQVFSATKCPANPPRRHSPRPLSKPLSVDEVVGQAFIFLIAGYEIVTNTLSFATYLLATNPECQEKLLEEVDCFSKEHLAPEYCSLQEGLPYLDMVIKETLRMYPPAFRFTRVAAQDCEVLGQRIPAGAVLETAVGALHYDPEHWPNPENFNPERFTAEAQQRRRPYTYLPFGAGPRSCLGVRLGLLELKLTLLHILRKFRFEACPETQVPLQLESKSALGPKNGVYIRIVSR
Description: A mixture of 70 μl of bovine platelet microsome [protein: 40 μg; 100 mM tris-HCl buffer (pH=7.4)] and 10 μl of a test compound solution (100 mM tris-HCl buffer containing 10% methanol) was allowed to stand at 0° C. for 5 minutes, and 20 μl of a prostaglandin H2 solution (100 mM tris-HCl buffer supplemented with acetone containing 0.1 nmol of prostaglandin H2) was added thereto as a substrate.
The amount of thromboxane B2 (TXB2) (stable degradation product of TXA2) produced in the system was determined by radioimmunoassay [F. A. Fitzpatrick et al., Methods in Enzymology, Vol. 86, p.286 (1982)].
Inhibition of TXB2 synthesis was evaluated by IC50 (50% inhibitory concentration) or percent inhibition as calculated from equation described below, and the results obtained are shown in Table 1. [formula]

[2] = system: silver nitrate-induced arteriothromboembolia in male Wistar-Shizuoka rats; assay: Test on Inhibition of Silver Nitrate-Induced Arteriothromboembolia in Rats; format: in vivo; details: for Number of Obstruction Case/Number of Experiments: control 23/26; for Percent Obstruction: control 88%; for percent obstruction vs control (in words): I-12Z 0.3, 1.0, or 3.0 mg/kg, I-13E 3 mg/kg
From the text: Male Wistar -Shizuoka rats weighing 270±20 g were anesthetized with urethane (1.5 g/kg) intraperitoneally. Each animal was fixed on its back, and a venous cannula and an arterial cannula were inserted into the left carotid vein and the left femoral artery, respectively. An abdominal incision was made, the intestinal tract was put aside so that the descending abdominal aorta could be seen, the surrounding connective tissues were removed, the descending aorta was detached to a length of about 1 cm, and the detached descending aorta was put on a globe of 8 cm in diameter. A solvent (0.1 ml; physiological saline containing 0.05N sodium hydroxide) or a drug solution (0.1 ml) in the solvent was injected via the cannulated carotid vein per 100 g of body weight. Three minutes later, a 30% silver nitrate aqueous solution was dropped on the detached descending abdominal aorta. Five minutes later, the globe was removed, and the affected site was washed three times with physiological saline to stop the reaction. After the elapse of 30 minutes from the stopping of the reaction, the blood pressure of the femoral artery was measured, and the pressure fall was taken as an indication of obstruction of the descending arterial. Significance of the difference in degree of the obstruction between the control group (only the solvent was administered) and the test group was assayed by X^2 -assay.

[3] = system: collagen-induced ischemic ECG alterations in spontaneous hypertensive rats (SHR); assay: Test On Inhibition of Collagen-Induced Ischemic Alterations of Electrocardiogram; format: in vivo; details: 1 mg/kg, iv; for Change of ECG (score 0-3): mean ± standard error, N = 5 to 6
Description: Spontaneous hypertensive rats (SHR) (male; 25-30-week-old; available from Hoshino Jikken Dobutsu) were intraperitoneally anesthesized with sodium pentobarbital (60 mg/kg). Each animal was fixed on its back, a venous cannula was inserted into the left jugular vein, and electrocardiograms (ECG) in extremity leads II were taken. A solvent alone (physiological saline containing 0.05N sodium hydroxide) or the test compound (I-12Z or I-13E) dissolved in the same solvent was intravenously administered in an amount of 0.1 ml per 100 g of body weight. Three minutes later, 4.5 mg/kg of collagen III originating from the bovine skin was intravenously injected, and the changes of the ECG were observed over 10 minutes. The ischemic ECG alterations after the intravenous injection of collagen were scored based on the following system according to the method of Matsumura et al., Folia Pharmacol., Japon, and the significance of difference in scores of the control group receiving the solvent alone and the test group was examined by the U-test of Mann-Whitney.
0 . . . Changes of 0.05 mV or less in the S-T segment or the T wave
1 . . . Changes between 0.05 and 0.1 mV in the S-T segment or the T wave
2 . . . Changes of 0.1 mV or more in the S-T segment or the T wave
3 . . . Arrythmia or cardiac arrest

[4] = dd male mice, mortality after 7 days
[5] = 0.5 min after collagen injection
[6] = 10 min after collagen injection

Structure (SMILES): COC1=Nc2ccncc2/C(=C/CCCCC(=O)O)c2ccccc21 [Compound I-13E, (E)-11-(5-Carboxypentylidene)-6-methoxy-11H-pyrido[4,3-c][2]benzazepin]
- Acute Toxicity (MLD) ip (dd male mice; [4]): > 100 mg/kg
- Acute Toxicity (MLD) po (dd male mice; mouse, in vivo, 10080 min): > 300 mg/kg
- IC50 [1]: 8.4 nM
- Number of Obstruction Case/Number of Experiments ([2]; 1.0 mg/kg i.v.): 3/4
- Percent Obstruction ([2]; 1.0 mg/kg i.v.): 75%
- Number of Obstruction Case/Number of Experiments ([2]; 3.0 mg/kg i.v.): 1/5
- Percent Obstruction ([2]; 3.0 mg/kg i.v.): 20%
- percent obstruction vs control (in words) ([2]; i.v.): significantly lower than that of the control group
- ECG changes vs control (in words) [3]: significantly smaller than those in the control groups
- Change of ECG (score 0-3) [3, 5]: 0 ± 0
- Change of ECG (score 0-3) ([3]; 1 min after collagen injection): 0.2 ± 0.2
- Change of ECG (score 0-3) ([3]; 2 min after collagen injection): 0.2 ± 0.2
- Change of ECG (score 0-3) ([3]; 3 min after collagen injection): 0.2 ± 0.2
- Change of ECG (score 0-3) ([3]; 4 min after collagen injection): 0.6 ± 0.4
- Change of ECG (score 0-3) ([3]; 5 min after collagen injection): 0.2 ± 0.2
- Change of ECG (score 0-3) ([3]; 6 min after collagen injection): 0.4 ± 0.2
- Change of ECG (score 0-3) ([3]; 7 min after collagen injection): 0.4 ± 0.2
- Change of ECG (score 0-3) ([3]; 8 min after collagen injection): 0.4 ± 0.2
- Change of ECG (score 0-3) ([3]; 9 min after collagen injection): 0.4 ± 0.2
- Change of ECG (score 0-3) [3, 6]: 0.2 ± 0.2

Structure (SMILES): CN1C(=O)c2ccncc2/C(=C\CCCCC(=O)O)c2ccccc21 [Compound I-12Z, (Z)-11-(5-carboxypentylidene)-6-methyl-5,11-dihydropyrido[4,3-c][1]benzazepin-5(6H)-one]
- Acute Toxicity (MLD) ip (dd male mice; [4]): > 100 mg/kg
- Acute Toxicity (MLD) po (dd male mice; [4]): > 300 mg/kg
- IC50 [1]: 34 nM
- Number of Obstruction Case/Number of Experiments ([2]; 0.1 mg/kg i.v.): 4/6
- Percent Obstruction ([2]; 0.1 mg/kg i.v.): 67%
- Number of Obstruction Case/Number of Experiments ([2]; 0.3 mg/kg i.v.): 1/5
- Percent Obstruction ([2]; 0.3 mg/kg i.v.): 20%
- Number of Obstruction Case/Number of Experiments ([2]; 1.0 mg/kg i.v.): 0/5
- Percent Obstruction ([2]; 1.0 mg/kg i.v.): 0%
- Number of Obstruction Case/Number of Experiments ([2]; 3.0 mg/kg i.v.): 1/5
- Percent Obstruction ([2]; 3.0 mg/kg i.v.): 20%
- percent obstruction vs control (in words) ([2]; i.v.): significantly lower than that of the control group
- inhibition of obstruction vs comparative drugs CV-4151 and OKY-1581 (in words) ([2]; i.v.): inhibition of obstruction at lower doses as compared with the comparative drugs, CV-4151 and OKY-1581
- ECG changes vs control (in words) [3]: significantly smaller than those in the control groups
- Change of ECG (score 0-3) [3, 5]: 0.8 ± 0.5
- Change of ECG (score 0-3) ([3]; 1 min after collagen injection): 0.5 ± 0.2
- Change of ECG (score 0-3) ([3]; 2 min after collagen injection): 1.0 ± 0.4
- Change of ECG (score 0-3) ([3]; 3 min after collagen injection): 0.8 ± 0.3
- Change of ECG (score 0-3) ([3]; 4 min after collagen injection): 0.7 ± 0.2
- Change of ECG (score 0-3) ([3]; 5 min after collagen injection): 0.2 ± 0.2
- Change of ECG (score 0-3) ([3]; 6 min after collagen injection): 0.3 ± 0.2
- Change of ECG (score 0-3) ([3]; 7 min after collagen injection): 0.5 ± 0.2
- Change of ECG (score 0-3) ([3]; 8 min after collagen injection): 0.5 ± 0.2
- Change of ECG (score 0-3) ([3]; 9 min after collagen injection): 0.4 ± 0.2
- Change of ECG (score 0-3) [3, 6]: 0.3 ± 0.2

Structure (SMILES): O=C(O)CCCCCCC=C1c2ccccc2NC(=O)c2ccncc21 [Compound I-5, 11-(7-Carboxyheptylidene)-5,11-dihydropyrido[4,3-c][1]-benzazepin-5(6H)-one]
- Acute Toxicity (MLD) ip (dd male mice; [4]): > 100 mg/kg
- Acute Toxicity (MLD) po (dd male mice; [4]): > 300 mg/kg
- IC50 [1]: 130 nM

Structure (SMILES): O=C(O)CCCC/C=C1/c2cnccc2C(=O)N(Cc2ccccc2)c2ccccc21 [Compound I-11E, (E)-6-Benzyl-11-(5-carboxypentylidene)-5,11-dihydropyrido[4,3-c][1]benzazepin-5(6H)-one]
- Acute Toxicity (MLD) ip (dd male mice; [4]): > 100 mg/kg
- Acute Toxicity (MLD) po (dd male mice; [4]): > 300 mg/kg
- IC50 [1]: 8.3 nM

Structure (SMILES): O=C(O)CCCC/C=C1/c2ccccc2NC(=O)c2ccncc21 [Compound I-10Z, (Z)-11-(5-carboxypentylidene)-5,11-dihydropyrido[4,3-c][1]benzazepin-5(6H)-one]
- Acute Toxicity (MLD) ip (dd male mice; [4]): > 100 mg/kg
- Acute Toxicity (MLD) po (dd male mice; [4]): > 300 mg/kg
- IC50 [1]: 16 nM

Structure (SMILES): CSC1=Nc2ccccc2C(=CCCCCC(=O)O)c2ccncc21 [Compound I-18, 5-(5-Carboxypentylidene)-11-thiomethyl-5H-pyrido[3,4-c][1]benzazepin]
- Acute Toxicity (MLD) ip (dd male mice; [4]): > 100 mg/kg
- Acute Toxicity (MLD) po (dd male mice; [4]): > 300 mg/kg
- IC50 [1]: 100 nM

Structure (SMILES): O=C(O)CCCC/C=C1/c2ccccc2NC(=O)c2cnccc21 [Compound I-19E, (E)-5-(5-Carboxypentylidene)-5,11-dihydropyrido[3,4-c][1]benzazepin-11(10H)-one]
- Acute Toxicity (MLD) ip (dd male mice; [4]): > 100 mg/kg
- Acute Toxicity (MLD) po (dd male mice; [4]): > 300 mg/kg
- inhibition at 10 µM [1]: 13%

Structure (SMILES): O=C(O)CCCCC=C1c2cnccc2CNc2ccccc21 [Compound I-15, 11-(5-Carboxypentylidene)-11H-5,6-dihydropyrido[4,3-c][1]benzazepin]
- Acute Toxicity (MLD) ip (dd male mice; [4]): > 100 mg/kg
- Acute Toxicity (MLD) po (dd male mice; [4]): > 300 mg/kg
- IC50 [1]: 22 nM
